# According to patent publication US10149887B2, “Peptides and peptidomimetics in combination with t cell activating and/or checkpoint inhibiting agents for cancer treatment” (CanBas Co., Ltd., priority 2015, dated 2018):
# Where two headings read alike, the source gives them in different places. Square brackets hold non-standard residues; d marks the D form. Peptide text beside a SMILES is read from it. dPhe(F5) = N[C@H](Cc1c(F)c(F)c(F)c(F)c1F)C(=O)O; dBpa = N[C@H](Cc1ccc(C(=O)c2ccccc2)cc1)C(=O)O; dCha = N[C@H](CC1CCCCC1)C(=O)O
# Experiments:
# Jurkat cells [1] = experiment: Side effect of peptide used alone: Jurkat cell cycle disturbance (flow cytometry); format: cell-based; settings: dose that produced Jurkat cell cycle disturbance, peptide alone
# Method in brief: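 Cell-cycle profiles were obtained by flow cytometry after propidium iodide staining in Krishan's solution for 1 hr at 4 °C. The value is the peptide dose given alone that disturbed the cell cycle, seen as significant SubG1 (dead) cells or unusually variable DNA content.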
# HUVEC = experiment: G2 checkpoint abrogation by CBP501 combined with cis-platin, flow cytometry; format: cell-based, human; settings: umbilical vein endothelium, cis-platin 3 μg/ml 3 hr, then 45 hr
# Description: The medium was aspirated, fresh medium without these compounds was added and the cells were incubated for an additional 45 hr. The cells including floating cells were harvested using trypsin-EDTA solution, incubated with Krishan's solution and analyzed for DNA content by flow cytometry as previously described.
# [2] = test system: MIAPaCa2 human pancreatic carcinoma cells; experiment: Colony formation analysis of MIAPaCa2 cells; format: cell-based; settings: CBP501 10 μmM, cisplatin or oxaliplatin 1, 3 or 9 μg/ml, three hours, then 10 days
# Description: Briefly, cells were plated at 300 cells/well in 6 well plates, incubated overnight, and treated with the compounds for three hours. The medium was changed and cultured for an additional 10 days. Cells were subsequently fixed with 70% methanol, stained with 0.1% crystal violet and visualized.
# [3] = cited from earlier work
# [4] = Human serum treatment analysis (residual G2 checkpoint abrogating activity); format: in vitro ADME; settings: 37 degrees
# Description: Serum analysis was performed to determine the stability of peptides in mouse and human serum. Briefly, peptides (10 mM or 2.5 mM) were incubated with freshly prepared human serum at 37 degrees for 1 hr. […] Jurkat cells were treated with the serum with or without peptides and bleomycin (40 μg/ml) and incubated for 24 hr. The population of G2 phase cells was determined by flow cytometry as previously described. The residual G2 checkpoint abrogating activity of serum treated peptides were determined by comparing the % G2 cells of the treated serum and the standard curve produced with medium treated peptides, bleomycin and Jurkat cells (Table 5A).
# [5] = test system: CBP501-sensitive human cancer cell lines; experiment: Intracellular accumulation of CDDP; format: cell-based
# [6] = Maximal tolerated dose in mouse by single injection; settings: in vivo, observed for a week
# advanced solid tumors = settings: monotherapy, cited from earlier work
# Jurkat cells [7] = experiment: M phase checkpoint abrogation / non specific toxicity, colchicine treated Jurkat cells; format: cell-based
# RAW264.7 = experiment: TNF release from macrophage cell line RAW264.7 (ELISA); format: cell-based, mouse; settings: 0.1 or 1 μM CBP501, LPS
# Description: The released TNF were measured by ELISA.
# M1 and M2 macrophages = experiment: Phagocytic activity of M1 and M2 macrophages (fluorescent beads, flow cytometry); format: cell-based, human; settings: in vitro
# Description: Referring to FIGS. 19A and 19B, macrophages were obtained by stimulating human peripheral blood mononuclear cells by 0.32 uM of PMA and removing all suspension cells 48 hours of PMA stimulation. The cells were further incubated with 50 ng/ml IFN-gamma, 10 ng/ml LPS to obtain M1 phenotype, and 20 ng/ml IL-4 to obtaine M2 macrophages. Both treatment was with or without CBP501. The phagocytic activity was monitored by using fluorescent labelled beads and flow cytometry.
# Jurkat cells [8] = experiment: G2 checkpoint abrogation, flow cytometry of bleomycin treated Jurkat cells; format: cell-based, human
# Description: Cell-cycle analysis The cell cycle status of the cells treated with bleomycin or adriamcin were analyzed by flow cytometry as described by Kawabe (1997) Nature 385:454-458. In brief, two million cells were re-suspended and incubated in 200 μl Krishan's solution (0.1% Sodium citrate, 50 μg/ml PI, 20 μg/ml RNase A and 0.5% NP-40) for 1 hr at 4° C. and analyzed by a flow cytometry, FACScan™ (Beckton Dickinson, Mountain View, Calif.) with the program CELLQuest™ (Beckton Dickinson).
# Flow cytometry analysis of G2 checkpoint abrogation was performed using human leukemia derived Jurkat cell line. In brief, cultured cells were treated with various doses of peptide/peptidomimetic and 40 μg/ml bleomycine for 24 hr. The DNA of the cells was stained with propidium iodide and analyzed by flow cytometry.
# The “G2 abrogating dose” indicates the peptide/peptidomimetic dose with 40 μg/ml bleomycine that produced detectable G2 checkpoint abrogation activity following treatment for 24 hours.
# The G2 checkpoint abrogating activity of various arginine rich sequences at different doses on cells treated with bleomycine was studied. Briefly, peptides were added to culture medium of Jurkat cells with bleomycin (40 μg/ml) at 0.2 μg/ml, 0.39 μg/ml, 0.78 μg/ml, 1.56 μg/ml, 3.125 μg/ml, 6.25 μg/ml, 12.5 μg/ml, 25 μg/ml and 50 μg/ml. Cells were subsequently harvested after 24 hours, stained with Krishan's solution, and analyzed with flow cytometry as previously described.
# HMGB1 = HMGB1 secretion from CT26WT cells (ELISA); format: cell-based, murine; settings: 20 μM CDDP with 0.5 μM CBP501, 45 min
# Description: Secreted HMGB1 into the medium was collected at 24, 48 and 72 hours after treatment (n=3). Quantification of the secreted HMGB1 was conducted by HMGB1 ELISA kit II. Samples were compared by student's t-test. *P<0.05 **P<0.01, compared with untreated control cells, and ^†P<0.05, ^††P<0.01, compared with the corresponding CDDP alone.
# After changing with fresh drug-free medium, cells were incubated for 24, 48, or 72 hours for Immunoblotting analysis of phospho-eIF2-alpha, for calreticulin analysis by FACS, or for HMGB1 ELISA.
# The secreted HMGB1 to the medium was quantificated by HMGB1 ELISA kit II (SINO-TEST CORPORATION, kanagawa, Japan) according to manufacturer's instructions.
# MIAPaCa2 = experiment: Sensitization of MIAPaCa2 to bleomycin or adriamycin (sub-G1 population, flow cytometry); format: cell-based, human; settings: bleomycine 10 μg/ml or adriamycin 1 μg/ml, 3 hours, then 21 hours
# Source text: FIGS. 3A and 3B Human pancreatic cancer derived cell line MIAPaCa2 treated with (FIG. 3A) bleomycin (Bleo) or (FIG. 3B) adriamycin (ADR) with various doses of compounds. Harvested cells were stained for their DNA and analyzed with flow cytometry. The % population of sub-G1 cells are indicated as dead cells.
# The G2 checkpoint abrogating activity of various compounds at different doses on human pancreatic cancer derived cell line MIAPaCa2 treated with bleomycine (Bleo) or adriamycin (ADR) was studied. Briefly, cells were incubated with the compounds and bleomycine (10 μg/ml) or adriamycin (1 μg/ml) for 3 hours. The medium was changed and incubated for an additional 21 hours. Harvested cells were stained for DNA by propium iodide and analyzed with flow cytometry as previously described. The % of the sub-G1 cell population is indicated as dead cells in FIG. 3.
smiles,measurement,setting,value
"N=C(N)NCCC[C@@H](NC(=O)[C@@H](CCCNC(=N)N)NC(=O)[C@@H](CCC(N)=O)NC(=O)[C@@H](CCCNC(=N)N)NC(=O)[C@@H](CCCNC(=N)N)NC(=O)[C@@H](CCCNC(=N)N)NC(=O)[C@@H](CC1CCCCC1)NC(=O)[C@@H](Cc1c(F)c(F)c(F)c(F)c1F)NC(=O)[C@@H](CO)NC(=O)[C@@H](Cc1c[nH]c2ccccc12)NC(=O)[C@@H](CO)NC(=O)[C@H](N)Cc1ccc(C(=O)c2ccccc2)cc1)C(=O)O [CBP501, (d-Bpa)(d-Ser)(d-Trp)(d-Ser)(d-Phe-2,3,4,5,6-F)(d-Cha)(d-Arg)(d-Arg)(d-Arg)(d-Gln)(d-Arg)(d-Arg)] (H-[dBpa][dS][dW][dS][dPhe(F5)][dCha][dR][dR][dR][dQ][dR][dR]-OH; N-terminus and C-terminus assumed)",Appearance of side effect when used alone,Jurkat cells [1],>50 µM
same,"G2 checkpoint abrogating dose of CBP501, cis-platin",HUVEC,>50 µM
same,"Enhancement of cyto-toxic activity of cisplatin and oxaliplatin, colony formation",[2],enhanced the cyto-toxic activity of both cisplatin and oxaliplatin
same,Patients with dose limiting allergic reactions (grade 3),[3]; CBP501 36.4 mg/m^2 and cisplatin 75 mg/m^2,two out of six
same,MTD of CBP501 in combination with cisplatin,"[3]; with cisplatin 75 mg/m^2, once every 21 days",24.3 mg/m^2
same,Residual activity of peptide after 1 hr human serum treatment,[4],>50% of original
same,"Intracellular accumulation of CDDP, CDDP combined with CBP501 vs CDDP alone",[5],1.5 to 3 times
same,MTD at 1 week,"[6]; ip, single intra-peritoneal injection, read-out: MTD (ip)",98.8 mg/kg
same,MTD at 1 week,"[6]; single intravenous injection, read-out: MTD (iv)",10 mg/kg
same,Stable disease,"advanced solid tumors; 60-min i.v. infusion days 1, 8, 15 every 28 days",Two patients achieved 7 cycles of treatment with stable disease
same,Discontinuation due to toxicity,advanced solid tumors; days 1-8-15 every 28 days,No patients discontinued due to toxicity
same,"Non specific toxicity (M checkpoint abrogation), dose up to which absent","Jurkat cells [7]; 0.5 μg/ml colchicine, unchanged percentage of M phase arrested cells",> 50 µM
same,M phase cell cycle arrest and/or non specific toxicity induced by colchicine (in words),Jurkat cells [7]; FIG. 12,does not affect M phase cell cycle arrest and/or non specific toxicity induced by colchicine
same,Appearance of side effect when used with Colchicine,"Jurkat cells [7]; dose with 5 μg/ml colchicine that produced Jurkat cell cycle disturbance, 24 hours",>25 µM
same,Cytokine secretion (TNF release) of macrophages,RAW264.7,Inhibition of cytokine secretion
same,Phagocytosis of M1 and M2 macrophages,M1 and M2 macrophages,inhibited phagocytosis of both M1 and M2 macrophages
same,G2 checkpoint abrogating activity (in words),Jurkat cells [8]; Jurkat cells with bleomycin 40 μg/ml,abrogated in a dose dependent manner
same,G2 abrogating dose,"Jurkat cells [8]; dose with 40 μg/ml bleomycine giving detectable G2 checkpoint abrogation, 24 hours",≥0.39 µM
same,"HMGB1 release, CDDP combined with CBP501 vs CDDP alone",HMGB1,about 2 times
same,"Sensitization of MIAPaCa2 cells to bleomycin and adriamycin (% sub-G1, dead cells)",MIAPaCa2,sensitized MIAPaCa2 cells to both bleomycin and adriamycin in a dose dependent manner
